Data on 4 molecules can be found in patent US20020054880A1, “Anti-inflammatory, tolerogenic and immunoinhibiting properties of carbohydrate binding-peptides” (priority 1992, published 2002).

The term IC50 denotes the midpoint of a concentration-inhibition curve. A high value points to weaker potency.

The target of assay [1] is T1, PT-biotin binding to fetuin (Bos taurus, UniProt P12763).
T1 construct: purchased Sigma Chemical Company (fetuin); Connaught Center for Biotechnology Research (PT)
T1 sequence (P12763 19-359): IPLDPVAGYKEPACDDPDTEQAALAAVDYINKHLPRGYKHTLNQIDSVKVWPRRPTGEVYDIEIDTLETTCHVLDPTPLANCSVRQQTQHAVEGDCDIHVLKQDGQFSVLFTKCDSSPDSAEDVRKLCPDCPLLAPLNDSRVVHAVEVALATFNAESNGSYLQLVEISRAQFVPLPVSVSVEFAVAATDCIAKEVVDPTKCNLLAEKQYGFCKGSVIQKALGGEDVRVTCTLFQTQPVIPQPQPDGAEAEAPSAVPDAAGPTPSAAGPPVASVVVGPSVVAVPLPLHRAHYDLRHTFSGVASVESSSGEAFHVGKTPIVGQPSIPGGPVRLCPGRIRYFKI
As to the kind of experiment: PT-biotin binding to fetuin, binding inhibition assay. Set-up: species or system Bordetella pertussis. Conditions: for Percent Changes in Binding Activity PT/fetuin: peptide mg/mL: S2PL 1.2, ACS2P1 1.0, S2(14-2.3) 1.0, S2P2 1.1, S2P3 0.51, S2P4 0.98, S2P6 0.85, S3P1 3.2, S3P2 3.1, S3P3 4.5, S3P4 3.3, S3P5 0.48, S3P9a 1.7, SPYGRC 4.4, S2(WGA) 1.0, WGA (62-73) 1.0, + enhancement, − inhibition. On the procedure:
(§1) Peptides ranging in concentration from 0.5 to 4.5 mg/ml in PBS (40 μl) were added to each well and PT-biotin (10 μl containing 10 ng in PBS) was then added to the microtiter wells. […] Horseradish peroxidase-conjugated avidin (100 μl, 1/3000 dilution in PBST to a concentration of 0.3 μg/ml) was then added to the wells, and the plates were incubated at ambient temperature for 1 hour. […] Color development was recorded at 405 nm using a Titertek Multiskan MC plate reader. […] Binding assays for each peptide were done in duplicate. Binding inhibition experiments utilizing SNA-, WGA-, and MAL-biotin were performed as described above using 10 ng of each biotinylated lectin in PBS.
(§2) Binding assays for each inhibitor concentration were done at least in duplicate, and the average value varied less than 15%.

Assay [2] concerns the target T2, PT-biotin binding to asialofetuin (Bos taurus, UniProt P12763).
T2 construct: made in house
T2 sequence (P12763 19-359): T1 sequence (P12763 19-359)
The experiment in a line: PT-biotin binding to asialofetuin, binding inhibition assay. Set-up: species or system Bordetella pertussis. Particulars: for Percent Changes in Binding Activity PT/asialo-fetuin: peptide mg/mL: S2PL 1.2, ACS2P1 1.0, S2P2 1.1, S2P3 0.51, S2P4 0.98, S2P6 0.85, S3P1 3.2, S3P2 3.1, S3P3 4.5, S3P4 3.3, S3P5 0.48, SPYGRC 4.4, + enhancement, − inhibition. On the procedure:
as §1, §2

Assay [3] deals with T3, SNA-biotin binding to fetuin (Bos taurus, UniProt P12763).
T3 sequence (P12763 19-359): T1 sequence (P12763 19-359)
As to the kind of experiment: biochemical. Conditions: peptide mg/mL: S2PL 1.2, ACS2P1 1.0, S2(14-2.3) 1.0, S2P2 1.1, S2P3 0.51, S2P4 0.98, S2P6 0.85, S3P1 3.2, S3P2 3.1, S3P3 4.5, S3P4 3.3, S3P5 0.48, S3P9a 1.7, SPYGRC 4.4, S2(WGA) 1.0, WGA (62-73) 1.0; + enhancement, − inhibition. On the procedure: (§3) The solution was removed by aspiration and replaced with 100 μl of 1% BSA in PBS containing 0.05% Tween 20 (PBST). After incubation for 2-4 hours at room temperature, the microtiter wells were washed four times with 300 μl of PBST. Peptides ranging in concentration from 0.5 to 4.5 mg/ml in PBS (40 μl) were added to each well and PT-biotin (10 μl containing 10 ng in PBS) was then added to the microtiter wells. After incubating for 1 hour, the binding reaction was stopped by aspirating the solutions and the plate was washed with PBST (300 μl). Horseradish peroxidase-conjugated avidin (100 μl, 1/3000 dilution in PBST to a concentration of 0.3 μg/ml) was then added to the wells, and the plates were incubated at ambient temperature for 1 hour. After washing the wells as described above, the substrate solution [1 mM ABTS in 5 mM citrate buffer, pH 4.2, containing 0.1% hydrogen peroxide, v/v) was added and the plates were incubated for 30 minutes. Color development was recorded at 405 nm using a Titertek Multiskan MC plate reader. Maximum binding was determined in the absence of peptide, and background binding was measured in wells coated with BSA only. Binding assays for each peptide were done in duplicate. Binding inhibition experiments utilizing SNA-, WGA-, and MAL-biotin were performed as described above using 10 ng of each biotinylated lectin in PBS.

Assay [4] has as its target T4, WGA-biotin binding to fetuin (Bos taurus, UniProt P12763).
T4 sequence (P12763 19-359): T1 sequence (P12763 19-359)
As to the kind of experiment: biochemical. Particulars: peptide mg/mL: S2PL 1.2, ACS2P1 1.0, S2(14-2.3) 1.0, S2P2 1.1, S2P3 0.51, S2P4 0.98, S2P6 0.85, S3P1 3.2, S3P2 3.1, S3P3 4.5, S3P4 3.3, S3P5 0.48, SPYGRC 4.4, S2(WGA) 1.0, WGA (62-73) 1.0; + enhancement, − inhibition. On the procedure: as §3

Assay [5] relates to pertussis toxin binding to Chinese Hamster ovary (CHO) cell. The experiment in a line: CHO cell neutralization of pertussis toxin (cell clumping). The class given is cell-based. Conditions: PT 2.4 ng/ml, peptide and PT 1 hour, triplicate. On the procedure: Confluent monolayers of CHO cells were lifted from plastic tissue culture flasks with 0.25% trypsin and suspended at a concentration of 5×10^4 cells/ml in Ham's F12 media containing 10% fetal bovine serum (FBS). 100 μl of the cell suspension was added to 96 well tissue culture plates and were allowed to establish contact with the plastic for 24 to 48 hours. The expended media was then removed and filtered-sterilized peptide 5-fold dilutions ranging in concentration from 300 to 30 femptogram per ml (80 μl) in Ham' F12 media containing FBS were added to the CHO cells. […] The incubation mixtures were gently mixed and incubated at 37° C. for 1 hour in a CO2 incubator. The incubation mixtures were then removed and replaced with fresh media. The tissue culture plates were then incubated for 24 hours at 37° C., fixed with 100% methanol, and stained with Geimsa stain. Control experiments were done in the absence of peptide alone or in the absence of PT. All determinations were done in triplicate. […] The results reported in Table VIII show the maximum peptide concentration required to cause a 50% reduction in CHO cell clumping.

In assay [6] the target is T5, ACS2P1-biotin binding to fetuin (Bos taurus, UniProt P12763).
T5 construct: purchased Sigma Chemical Company
T5 sequence (P12763 19-359): T1 sequence (P12763 19-359)
As to the kind of experiment: biochemical. Particulars: for Percent Change in Binding Activity Fetuin: peptide μM: ACS2P1 4.1, S2P2 42.5, SPYGRC 5520, S2P3 22.4, S2P4 6.0, S2P6 319, S3P1 1142, S3P2 934, S3P3 16.1, S3P4 6.4, S3P5 22.5, ACS2P1-biotin 0.1 μg, − inhibition, + enhancement.

The target of assay [7] is T6, MAL-biotin binding to fetuin (Bos taurus, UniProt P12763).
T6 construct: purchased Sigma Chemical Company (fetuin); Boehringer Mannheim (MAL-biotin)
T6 sequence (P12763 19-359): T1 sequence (P12763 19-359)
As to the kind of experiment: MAL-biotin binding to fetuin, binding inhibition assay. Particulars: peptide mg/mL: S2PL 1.2, ACS2P1 1.0, S2(14-2.3) 1.0, S2P2 1.1, S2P3 0.51, S2P4 0.98, S2P6 0.85, S3P1 3.2, S3P2 3.1, S3P3 4.5, S3P4 3.3, S3P5 0.48, S3P9a 1.7, SPYGRC 4.4, S2(WGA) 1.0, WGA (62-73) 1.0; + enhancement, − inhibition. More on the design: species or system Maackia amurensis. On the procedure:
as §1, §2

The target of assay [8] is T7, ACS2P1-biotin binding to asialofetuin (Bos taurus, UniProt P12763).
T7 construct: made in house
T7 sequence (P12763 19-359): T1 sequence (P12763 19-359)
As to the kind of experiment: Screening of S2 and S3 peptides for inhibition of ACS2P1-biotin binding to asialofetuin. Conditions: for Percent Change in Binding Activity Asialofetuin: peptide μM: ACS2P1 4.1, S2P2 42.5, SPYGRC 5520, S2P3 22.4, S2P4 6.0, S2P6 319, S3P1 1142, S3P2 934, S3P3 16.1, S3P4 6.4, S3P5 22.5, ACS2P1-biotin 0.1 μg, − inhibition, + enhancement.

“Also recorded” adds a separate entry of the source.

For `CC[C@H](C)[C@H](NC(=O)CNC(=O)[C@@H]1CCCN1C(=O)[C@@H](NC(=O)[C@@H](N)CO)[C@@H](C)O)C(=O)N[C@H](C(=O)N[C@H](C(=O)N1CCC[C@H]1C(=O)N1CCC[C@H]1C(=O)N[C@@H](CCC(N)=O)C(=O)N[C@@H](CCC(=O)O)C(=O)N[C@@H](CCC(N)=O)C(=O)N[C@H](C(=O)N[C@H](C(=O)N[C@@H](CCC(N)=O)C(=O)N[C@@H](Cc1c[nH]cn1)C(=O)NCC(=O)N[C@@H](CO)C(=O)N1CCC[C@H]1C(=O)N[C@@H](Cc1ccc(O)cc1)C(=O)NCC(=O)N[C@@H](CCCNC(=N)N)C(=O)N[C@@H](CS)C(=O)O)[C@@H](C)O)[C@@H](C)CC)[C@@H](C)CC)C(C)C` [Peptide S2P2], in assay [1], the “effect on PT-biotin binding to fetuin, in words” value was “enhancement of binding of PT to fetuin” and the “Percent Changes in Binding Activity PT/fetuin” value is reported as “+58 ± 4%”. Further, in assay [1] (initial peptide screening), the “enhancement of PT-biotin binding to fetuin relative to control experiments in the absence of peptide” value was approximately 2 fold. The “Percent Changes in Binding Activity PT/asialo-fetuin” value in assay [2] is reported as “+33(1) Percent”. The “Percent Changes in Binding Activity SNA/fetuin” value in assay [3] was −1 ± 1%. Also, in assay [4], the “Percent Changes in Binding Activity WGA/fetuin” value is listed as −15 ± 2%. In addition, the “Maximal Inhibitory Concentration for Greater than 50% Inhibition” value in assay [5] was “NI (Not inhibitory at a peptide concentration of 300 ng/ml.)”. In assay [6], the half-inhibitory concentration (IC50) came out at 42.5 µM and the “Percent Change in Binding Activity Fetuin” value was −50%. For the same molecule, in assay [6] (from IC50 values), the “decrease in affinity relative to ACS2P1” value is 10 fold. Further, the “Percent Changes in Binding Activity MAL/fetuin” value in assay [7] is recorded as “+14 ± 2%”. Moreover, in assay [8], the “competition for the binding of ACS2P1-biotin to asialofetuin, in words” value is given as “unable to compete for the binding of ACS2P1-biotin to asialofetuin” and the “Percent Change in Binding Activity Asialofetuin” value was “+6 ± 1%”.
CITTIYKTGQPAADHYYSKVTA [Peptide S3P3]: in assay [1], the “Percent Changes in Binding Activity PT/fetuin” value is “+19 ± 67%”. In addition, in assay [2], the “effect on PT-biotin binding to asialofetuin, in words” value is recorded as “reduce binding of PT to asialofetuin only; also recorded: inhibit PT-biotin's interaction with asialofetuin in a concentration-dependent manner” and the “Percent Changes in Binding Activity PT/asialo-fetuin” value is given as −28 ± 7%. In assay [2] (wells coated with 3 μg/ml asialofetuin, 2-fold dilutions of peptide in PBS), the “IC50 PT-b (asialofetuin)” value is “above the solubility limits of the peptide in PBS”. Also, the “Percent Changes in Binding Activity SNA/fetuin” value in assay [3] was “+3 ± 0%”. The “Percent Changes in Binding Activity WGA/fetuin” value in assay [4] is recorded as “+6 ± 3%”. Moreover, the “Percent Change in Binding Activity Fetuin” value in assay [6] was −13 ± 16%. For the same molecule, the “Percent Changes in Binding Activity MAL/fetuin” value in assay [7] is “+13 ± 15%”. The “Percent Change in Binding Activity Asialofetuin” value in assay [8] was −10 ± 11%.
Regarding PKALFTQQGGAYGRC [Peptide S3P1], the “Percent Changes in Binding Activity PT/fetuin” value in assay [1] was “+54 ± 25%”. The “Percent Changes in Binding Activity PT/asialo-fetuin” value in assay [2] is “+45 ± 16%”. The “Percent Changes in Binding Activity SNA/fetuin” value in assay [3] is listed as −2 ± 1%. For the same molecule, the “Percent Changes in Binding Activity WGA/fetuin” value in assay [4] is reported as −9 ± 4%. Also, the “Maximal Inhibitory Concentration for Greater than 50% Inhibition” value in assay [5] is “NI (Not inhibitory at a peptide concentration of 300 ng/ml.)”. In assay [6], the “inhibition of ACS2P1-biotin binding to fetuin, in words” value was “inability” and the “Percent Change in Binding Activity Fetuin” value is on record as “+245 ± 28%”. The “Percent Changes in Binding Activity MAL/fetuin” value in assay [7] is on record as “+4 ± 6%”. In assay [8], the “Percent Change in Binding Activity Asialofetuin” value was “+4 ± 0%”.
On to YDGKYWSMYSRLRKMLY [Peptide S2P4], for which the “Percent Changes in Binding Activity PT/fetuin” value in assay [1] was “+14 ± 22%”. For the same molecule, the “Percent Changes in Binding Activity PT/asialo-fetuin” value in assay [2] was −3(1) Percent. Besides, the “Percent Changes in Binding Activity SNA/fetuin” value in assay [3] is on record as “+3(1) Percent”. For the same molecule, the “Percent Changes in Binding Activity WGA/fetuin” value in assay [4] was “+15 ± 1%”. For the same molecule, the “Percent Change in Binding Activity Fetuin” value in assay [6] was −8 ± 16%. Besides, the “Percent Changes in Binding Activity MAL/fetuin” value in assay [7] is given as “+2(1) Percent”. For the same molecule, the “Percent Change in Binding Activity Asialofetuin” value in assay [8] is “+2 ± 4%”.
